According to ChEMBL document CHEMBL3596159, “Beyond substrate analogues: new inhibitor chemotypes for glycosyltransferases” (Medchemcomm, 2014):
In brackets after ≈: the same amount, converted by molar mass. Each block holds one compound with its values, some of them ahead of it.

Columns and labels:
[1] = target: T1, Alpha-(1,3)-fucosyltransferase 7 (Homo sapiens, UniProt Q11130); test: Inhibition of FucT-7 (unknown origin)
T1 sequence (Q11130 whole entry): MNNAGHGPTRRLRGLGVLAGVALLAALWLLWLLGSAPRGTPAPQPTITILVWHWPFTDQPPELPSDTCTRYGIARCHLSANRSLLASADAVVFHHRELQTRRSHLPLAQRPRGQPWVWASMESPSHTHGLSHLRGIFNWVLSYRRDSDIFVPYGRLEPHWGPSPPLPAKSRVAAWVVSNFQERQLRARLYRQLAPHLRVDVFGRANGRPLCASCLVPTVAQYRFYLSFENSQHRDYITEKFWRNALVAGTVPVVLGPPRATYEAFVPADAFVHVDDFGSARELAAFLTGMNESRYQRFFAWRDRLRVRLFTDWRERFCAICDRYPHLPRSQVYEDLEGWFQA

[2] = target: Ceramide glucosyltransferase (Homo sapiens, UniProt Q16739); test: Inhibition of glucosylceramide synthase (unknown origin)
[3] = Inhibition of short OGT (unknown origin); set-up: species or system Homo sapiens
[4] = target: T2, CMP-N-acetylneuraminate-beta-galactosamide-alpha-2,3-sialyltransferase 1 (Homo sapiens, UniProt Q11201); test: Inhibition of ST3Gal 1 (unknown origin)
T2 sequence (Q11201 whole entry): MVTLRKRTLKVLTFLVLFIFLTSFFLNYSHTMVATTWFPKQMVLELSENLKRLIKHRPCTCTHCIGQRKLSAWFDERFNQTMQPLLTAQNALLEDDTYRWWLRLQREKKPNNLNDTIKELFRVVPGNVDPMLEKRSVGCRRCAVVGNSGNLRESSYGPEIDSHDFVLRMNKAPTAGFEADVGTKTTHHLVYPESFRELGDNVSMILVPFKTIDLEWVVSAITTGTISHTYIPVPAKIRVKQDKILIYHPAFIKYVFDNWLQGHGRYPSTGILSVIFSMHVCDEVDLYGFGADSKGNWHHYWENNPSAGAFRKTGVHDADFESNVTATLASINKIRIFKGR

[5] = target: T3, 4-galactosyl-N-acetylglucosaminide 3-alpha-L-fucosyltransferase FUT5 (Homo sapiens, UniProt Q11128); test: Inhibition of FucT-5 (unknown origin)
T3 sequence (Q11128 whole entry): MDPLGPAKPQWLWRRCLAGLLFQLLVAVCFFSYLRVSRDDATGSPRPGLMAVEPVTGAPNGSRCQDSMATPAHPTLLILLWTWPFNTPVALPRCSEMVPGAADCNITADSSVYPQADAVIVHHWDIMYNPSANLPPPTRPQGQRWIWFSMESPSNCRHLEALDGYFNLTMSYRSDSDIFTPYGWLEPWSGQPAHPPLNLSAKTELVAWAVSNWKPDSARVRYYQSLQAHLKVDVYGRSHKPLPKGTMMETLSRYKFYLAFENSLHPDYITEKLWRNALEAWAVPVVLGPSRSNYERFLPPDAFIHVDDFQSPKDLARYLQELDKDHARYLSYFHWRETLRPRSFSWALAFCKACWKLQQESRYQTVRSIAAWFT

[6] = target: T4, 4-galactosyl-N-acetylglucosaminide 3-alpha-L-fucosyltransferase FUT6 (Homo sapiens, UniProt P51993); test: Inhibition of FucT-6 (unknown origin)
T4 sequence (P51993 whole entry): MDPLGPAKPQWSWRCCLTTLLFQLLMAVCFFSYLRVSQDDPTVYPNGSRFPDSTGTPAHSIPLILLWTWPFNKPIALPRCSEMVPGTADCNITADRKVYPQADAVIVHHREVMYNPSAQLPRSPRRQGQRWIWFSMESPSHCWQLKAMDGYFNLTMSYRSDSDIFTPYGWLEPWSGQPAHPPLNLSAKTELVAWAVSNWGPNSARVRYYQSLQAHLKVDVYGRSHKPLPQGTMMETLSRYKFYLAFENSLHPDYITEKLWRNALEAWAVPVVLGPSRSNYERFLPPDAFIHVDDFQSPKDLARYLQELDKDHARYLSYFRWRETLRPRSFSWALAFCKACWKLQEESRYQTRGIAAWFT

[7] = target: T5, CMP-N-acetylneuraminate-beta-1,4-galactoside alpha-2,3-sialyltransferase (Homo sapiens, UniProt Q11203); test: Inhibition of ST3N (unknown origin)
T5 sequence (Q11203 whole entry): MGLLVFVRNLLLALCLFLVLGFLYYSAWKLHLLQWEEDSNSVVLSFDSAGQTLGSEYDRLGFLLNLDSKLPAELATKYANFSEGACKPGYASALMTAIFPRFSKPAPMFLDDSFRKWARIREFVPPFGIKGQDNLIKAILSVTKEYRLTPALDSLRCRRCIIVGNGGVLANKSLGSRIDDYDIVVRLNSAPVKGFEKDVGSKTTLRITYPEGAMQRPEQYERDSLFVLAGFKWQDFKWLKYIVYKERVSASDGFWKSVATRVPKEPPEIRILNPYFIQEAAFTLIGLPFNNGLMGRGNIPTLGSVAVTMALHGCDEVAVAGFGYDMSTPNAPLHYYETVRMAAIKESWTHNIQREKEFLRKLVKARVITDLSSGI

[8] = target: T6, Beta-galactoside alpha-2,6-sialyltransferase 1 (Homo sapiens, UniProt P15907); test: Inhibition of ST6N (unknown origin)
T6 sequence (P15907 whole entry): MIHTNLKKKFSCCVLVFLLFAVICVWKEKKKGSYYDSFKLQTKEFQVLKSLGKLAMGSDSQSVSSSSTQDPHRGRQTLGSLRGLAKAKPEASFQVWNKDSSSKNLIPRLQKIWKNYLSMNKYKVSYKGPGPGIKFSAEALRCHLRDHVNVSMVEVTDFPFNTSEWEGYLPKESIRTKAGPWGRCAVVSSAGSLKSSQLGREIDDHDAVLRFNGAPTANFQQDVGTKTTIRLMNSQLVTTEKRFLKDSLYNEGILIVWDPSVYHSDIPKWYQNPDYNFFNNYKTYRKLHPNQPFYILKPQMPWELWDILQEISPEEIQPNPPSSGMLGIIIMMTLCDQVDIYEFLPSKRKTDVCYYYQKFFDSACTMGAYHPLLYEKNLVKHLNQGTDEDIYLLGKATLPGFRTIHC

[9] = Inhibition of candida albicans beta-(1,3)-glucan synthase assessed as decrease in transfer of radiolabelled glucose from UDP-[3H]-glucose onto acceptor
Candida albicans = test: Antifungal activity against Candida albicans; type: functional
[10] = target: Alpha-(1,6)-fucosyltransferase (Homo sapiens, UniProt Q9BYC5); test: Inhibition of FucT-8 in human blood platelets
[11] = target: UDP-N-acetylglucosamine--N-acetylmuramyl-(pentapeptide) pyrophosphoryl-undecaprenol N-acetylglucosamine transferase (Escherichia coli (strain K12), UniProt P17443); test: Inhibition of Escherichia coli MurG
[12] = target: T7, UDP-N-acetylglucosamine--N-acetylmuramyl-(pentapeptide) pyrophosphoryl-undecaprenol N-acetylglucosamine transferase (Escherichia coli (strain K12)) (UniProt P17443); test: Inhibition of Escherichia coli MurG at 2.5 microg/ml
T7 sequence (whole entry): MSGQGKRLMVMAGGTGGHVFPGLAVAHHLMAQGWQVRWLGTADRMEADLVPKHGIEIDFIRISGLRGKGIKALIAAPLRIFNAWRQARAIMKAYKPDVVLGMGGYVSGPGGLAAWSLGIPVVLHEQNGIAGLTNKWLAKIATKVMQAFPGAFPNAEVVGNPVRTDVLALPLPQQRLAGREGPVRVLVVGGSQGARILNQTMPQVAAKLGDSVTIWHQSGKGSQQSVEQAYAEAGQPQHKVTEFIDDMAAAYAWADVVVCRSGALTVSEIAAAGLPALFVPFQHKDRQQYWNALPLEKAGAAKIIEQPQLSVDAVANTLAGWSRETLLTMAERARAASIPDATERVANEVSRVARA

[13] = target: UDP-N-acetylglucosamine--peptide N-acetylglucosaminyltransferase 110 kDa subunit (Homo sapiens, UniProt O15294); test: Inhibition of nucleocytoplasmic OGT (unknown origin)
[14] = Inhibition of human beta-1,4-GalT
[15] = target: T6, Beta-galactoside alpha-2,6-sialyltransferase 1; test: Inhibition of human ST6Gal1
[16] = target: Beta-galactoside alpha-2,6-sialyltransferase 1 (Rattus norvegicus, UniProt P13721); test: Inhibition of rat ST6Gal1
Beta-galactoside alpha-2,6-sialyltransferase 1 (Rattus norvegicus, UniProt P13721), sequence (P13721 whole entry): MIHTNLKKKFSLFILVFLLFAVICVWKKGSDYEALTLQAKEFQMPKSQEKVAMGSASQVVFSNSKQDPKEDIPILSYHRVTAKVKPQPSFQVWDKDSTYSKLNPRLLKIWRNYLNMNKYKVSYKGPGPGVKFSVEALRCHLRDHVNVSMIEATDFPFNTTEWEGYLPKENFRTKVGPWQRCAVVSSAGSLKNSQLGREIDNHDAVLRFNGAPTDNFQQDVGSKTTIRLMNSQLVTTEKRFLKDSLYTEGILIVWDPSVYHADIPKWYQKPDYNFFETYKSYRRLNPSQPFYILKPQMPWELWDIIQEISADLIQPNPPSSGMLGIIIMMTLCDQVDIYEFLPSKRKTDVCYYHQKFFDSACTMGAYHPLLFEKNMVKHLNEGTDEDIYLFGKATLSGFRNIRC

Ceramide glucosyltransferase, sequence (Q16739 whole entry): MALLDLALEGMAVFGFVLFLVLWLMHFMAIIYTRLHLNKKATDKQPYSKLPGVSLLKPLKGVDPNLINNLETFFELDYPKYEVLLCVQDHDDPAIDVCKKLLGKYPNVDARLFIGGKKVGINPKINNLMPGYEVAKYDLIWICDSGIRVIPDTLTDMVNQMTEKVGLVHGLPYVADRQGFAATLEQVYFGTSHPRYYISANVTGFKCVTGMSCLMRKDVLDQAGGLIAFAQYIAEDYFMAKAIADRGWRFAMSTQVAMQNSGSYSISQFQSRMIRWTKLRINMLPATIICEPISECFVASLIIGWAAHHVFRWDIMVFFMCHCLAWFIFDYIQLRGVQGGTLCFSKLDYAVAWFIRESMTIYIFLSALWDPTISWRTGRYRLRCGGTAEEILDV
Alpha-(1,6)-fucosyltransferase, sequence (Q9BYC5 whole entry): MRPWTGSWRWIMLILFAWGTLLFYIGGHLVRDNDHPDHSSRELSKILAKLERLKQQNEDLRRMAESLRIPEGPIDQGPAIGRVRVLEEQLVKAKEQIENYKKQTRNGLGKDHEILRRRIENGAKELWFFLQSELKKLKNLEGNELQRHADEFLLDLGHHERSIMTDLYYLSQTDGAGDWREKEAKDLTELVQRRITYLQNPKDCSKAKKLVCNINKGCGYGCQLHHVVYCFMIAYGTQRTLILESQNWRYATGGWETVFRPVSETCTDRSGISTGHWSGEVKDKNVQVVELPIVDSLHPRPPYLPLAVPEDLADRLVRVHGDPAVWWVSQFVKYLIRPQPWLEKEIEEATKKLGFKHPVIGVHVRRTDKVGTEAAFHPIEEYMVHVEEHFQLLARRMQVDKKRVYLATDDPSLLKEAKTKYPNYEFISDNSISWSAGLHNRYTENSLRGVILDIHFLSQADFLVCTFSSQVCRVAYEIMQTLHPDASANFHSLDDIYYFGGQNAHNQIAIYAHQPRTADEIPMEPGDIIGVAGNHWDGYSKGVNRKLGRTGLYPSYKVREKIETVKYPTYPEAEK
UDP-N-acetylglucosamine--peptide N-acetylglucosaminyltransferase 110 kDa subunit, sequence (O15294 whole entry): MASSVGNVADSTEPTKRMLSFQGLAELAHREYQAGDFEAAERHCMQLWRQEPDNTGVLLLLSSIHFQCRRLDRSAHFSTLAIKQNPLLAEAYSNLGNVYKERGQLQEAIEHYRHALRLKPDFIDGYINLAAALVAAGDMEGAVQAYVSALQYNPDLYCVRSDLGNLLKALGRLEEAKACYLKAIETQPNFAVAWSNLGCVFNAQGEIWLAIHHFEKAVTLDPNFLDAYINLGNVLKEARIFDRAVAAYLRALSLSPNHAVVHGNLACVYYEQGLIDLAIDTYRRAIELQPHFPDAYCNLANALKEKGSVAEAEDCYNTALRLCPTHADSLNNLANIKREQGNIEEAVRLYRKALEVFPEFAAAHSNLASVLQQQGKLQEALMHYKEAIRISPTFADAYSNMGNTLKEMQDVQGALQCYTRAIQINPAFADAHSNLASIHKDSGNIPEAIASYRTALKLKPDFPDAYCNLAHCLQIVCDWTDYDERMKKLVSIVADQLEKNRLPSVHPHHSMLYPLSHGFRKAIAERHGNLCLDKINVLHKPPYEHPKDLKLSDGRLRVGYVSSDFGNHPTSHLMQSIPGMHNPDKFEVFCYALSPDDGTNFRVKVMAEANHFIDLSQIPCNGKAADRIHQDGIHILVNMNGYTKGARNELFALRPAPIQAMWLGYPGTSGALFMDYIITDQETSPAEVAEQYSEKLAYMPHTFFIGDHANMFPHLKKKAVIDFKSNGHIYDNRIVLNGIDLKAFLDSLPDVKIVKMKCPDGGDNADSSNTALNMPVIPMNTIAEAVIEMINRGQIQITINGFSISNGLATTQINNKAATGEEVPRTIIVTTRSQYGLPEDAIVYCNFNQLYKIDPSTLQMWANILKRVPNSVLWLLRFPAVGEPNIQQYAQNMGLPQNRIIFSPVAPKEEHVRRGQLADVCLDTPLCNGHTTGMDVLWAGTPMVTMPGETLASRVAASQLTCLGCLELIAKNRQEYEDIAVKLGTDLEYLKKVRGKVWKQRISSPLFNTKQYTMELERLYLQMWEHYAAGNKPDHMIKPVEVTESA

IC50 [1]: 4.8 µM
SMILES: CC(C)CCCCCCCCCCCCc1cc(OS(=O)(=O)O)cc(OS(=O)(=O)O)c1

IC50 [2]: 164 µM
SMILES: CCCCCCCCO[C@H]1CN(CCCCCCCC)[C@H](CO)[C@@H](O)[C@@H]1O

IC50 [3]: 27 µM
SMILES: O=C(Oc1ccccc1)n1c(=O)oc2ccc(Cl)cc21

IC50 [4]: 30.2 µM | IC50 [5]: > 200 µM | IC50 [6]: > 200 µM | IC50 [7]: 50 µM | IC50 [8]: 8 µM
SMILES: C[C@@H]1CC[C@H]2C(C)(C)[C@H](O)CC[C@]2(C)[C@@]12Cc1c(O)cc3c(c1O2)COC3=O

SMILES: CC(C)[C@@H](C)/C=C/[C@@H](C)[C@H]1CCC2=C3[C@@H](O)[C@@H]4O[C@@]45C[C@@H](OC(=O)[C@@H](N)[C@@H](OS(=O)(=O)O)C(C)C)CC[C@]5(C)[C@H]3CC[C@@]21C(=O)O
IC50 [9]: 3 µM | MIC (Candida albicans): 0.2 µg/mL (≈ 0.299 µM)

IC50 [2]: 4 µM
SMILES: CCCCCCCCCC(=O)N[C@H](CN1CCCC1)[C@H](O)c1ccccc1

SMILES: O=S(=O)(O)c1cc(Nc2nc(Cl)nc(Nc3ccc(Nc4nc(Cl)nc(Nc5cc(S(=O)(=O)O)cc6cc(S(=O)(=O)O)c(/N=N/c7ccccc7S(=O)(=O)O)c(O)c56)n4)cc3)n2)c2c(O)c(/N=N/c3ccccc3S(=O)(=O)O)c(S(=O)(=O)O)cc2c1
Ki [10]: 2 µM

SMILES: CC1CCN(CN2C(=O)/C(=C\c3ccc(C(C)(C)C)cc3)SC2=S)CC1
Ki [11]: 1.3 µM | inhibition [12]: 88%

IC50 [3]: 60 µM | IC50 [13]: 100 µM
SMILES: N#Cc1ccc(CSc2nc(-c3cccs3)c3c(c2C(=O)O)CCCC3)cc1

Ki [14]: 192 µM
SMILES: CC(=O)N[C@H]1[C@H](O[C@H]2[C@@H](O)[C@@H](CO)O[C@@H](OCc3ccc4ccccc4c3)[C@@H]2O)O[C@H](CO)C[C@@H]1O

IC50 [15]: 7.5 µM | IC50 [16]: 1.9 µM
SMILES: O=c1c(O)c(-c2ccc(O)c(O)c2)oc2ccccc12

IC50 [1]: 4.3 µM
SMILES: CCCCCCCCCCCCCCCc1cc(OS(=O)(=O)O)cc(OS(=O)(=O)O)c1
